Data from patent US20070161547A1, “Modulation of survivin expression” (priority 2003, published 2007).
Like-named read-outs stand apart in the source and are kept apart here. d = 2'-deoxy (DNA)

Legend:
survivin protein = assay: IC50 of dsRNA for survivin protein, quantitative Western blot ("W"); format: cell-based, human; settings: for IC50: W (Western blot), HeLa cells
Method: Western blot analysis (immunoblot analysis) is carried out using standard methods. Cells are harvested 16-20 hours after oligonucleotide treatment, washed once with PBS, suspended in Laemmli buffer (100 μl/well), boiled for 5 minutes and loaded on a 16% SDS-PAGE gel. Gels are run for 1.5 hours at 150 V, and transferred to membrane for western blotting. Appropriate primary antibody directed to survivin is used, with a radiolabelled or fluorescently labeled secondary antibody directed against the primary antibody species. Bands are visualized using a PHOSPHORIMAGER™ (Molecular Dynamics, Sunnyvale, Calif.).
(§1) For western blot analysis, cells are plated in 10 cm tissue culture dishes (Falcon, #3003) at a density of 7.5×10^5 cells/dish. For RT-PCR analysis, 96-well plates (Corning Incorporated, #3596) are plated with 1×10^4 cells/well. Lipofectin (GIBCO/Invitrogen) transfection reagent is used at a concentration of 3 ul/ml OPTIMEM reduced serum medium (Gibco/Invitrogen)/100 nM siRNA duplex. Lipofectin reagent is incubated with OPTIMEM medium for 30 minutes prior to the addition of siRNA. The desired amount of siRNA is added and mixed. Further 1:1 dilutions are performed in OPTIMEM. Cells are washed twice with 1× phosphate buffered saline and then treated with the siRNA/Lipofectin mixture in OPTIMEM. After a 4 hr incubation period, OPTIMEM medium is replaced with complete growth medium. Cells are harvested after additional 16-20 hrs for Western blot or RT-PCR analysis.
At the end of the incubation period culture medium is removed and cells are washed twice with PBS. Cells are lysed in RIPA buffer (20 mM Tris-HCl, pH 7.4, 5 mM EDTA, 50 mM NaCl, 10 mM Sodium Pyrophosphate, 50 mM Sodium Fluoride, and 1% Nonidet P40) plus Complete™ Mini protease inhibitor tablets (Roche, #1836153) and 1 mM Sodium orthovanadate (Sigma) by directly adding buffer to the plate. Lysates are collected by scrapping, transferred to microfuge tubes and cleared from the cellular debris by centrifugation at 14,000 rpm for 30 minutes at 4° C. Protein concentrations are determined using BCA protein assay yeagents (Pierce). Total cellular protein is subjected to SDS-PAGE and transferred onto Immobilon-P membranes (Millipore, #IPVHO91). Membranes are probed with primary antibodies to survivin (R&D Systems, #AF886) and to β-Actin (Sigma, #A5441). Horseradish peroxidase linked Anti-rabbit Ig, and anti-mouse Ig, antibodies (Pharmacia) are used as secondary antibodies. Antigen-antibody complexes are visualized by incubation of membrane in SuperSigmal West Pico chemiluminescence reagents (Pierce) for 5 minutes followed by capturing of the chemiluminescence using Fluor-S imager (Biorad) equipped with the cool CCD camera. The protein bands of interest for each sample are quantified using Quantity One software (Biorad). The percentage inhibition for each samples are calculated by comparing the survivin/Actin protein ratio for the sample to survivin/Actin protein ratio for the untreated control. The IC50 is derived from the non-linear regression analysis of the percentage inhibition data using GraphPad Prism software (GraphPad Software).
The constructs tested comprise the antisense strand in the 5′-3′ orientation, and the sense strand in the 5′ to 3′ orientation, In Table 15, “D” is dose response (mRNA levels) and “W” is Western blot. All internucleoside linkages are phosphodiester unless otherwise noted by a lowercase “s” indicating a phosphorothioate linkage.

human survivin mRNA = assay: IC50 of dsRNA for survivin mRNA, dose response by quantitative RT-PCR ("D"); format: cell-based
Method: Representative parameters that can be studied include, for example, translation of survivin mRNAs or survivin protein synthesis; effect on surrogate markers; or any other parameter that is indicative of potential dsRNA therapeutic effectiveness that can be conveniently measured in vitro.
as §1
Total RNA is isolated using RNeasy® 96 kit according to recommended protocol (Qiagen). Briefly, cells are washed with 200 ul PBS after removal of growth medium. Following washing, 100 μl buffer RLT is added, plate is shaken vigorously for about 20 seconds. To each well 100 μl 70% ethanol are added and mixed by pipetting up and down three times. Samples are then applied into the wells of the RNeasy 96 plate placed in the QIAvac top base of the QIAvac 96 manifold, which is attached to a vacuum source. Vacuum is applied for 30 seconds or until transfer is complete. To each well 80 μl of DNase I incubation mix (20 mM Tris-HCl, pH 8.4, 2 mM MgCl2, 50 mM KCl and 225 Units/ml DNase I from Invitrogen) is added and incubated at room temperature for 30 minutes. Buffer RW1 (1 ml/well) is added and the vacuum is applied for 30 seconds. Buffer RPE (1 ml/well) is added to each well and vacuum is applied for 30 seconds. Washing steps with buffer RW1 and RPE1 are repeated once more. The plate is then removed from the manifold and blotted dry on paper towels. The plate is placed back in the QIAvac manifold and the vacuum is applied for 10 minutes. To elute RNA 30 μl of RNase-free water is added directly onto the membrane of each well, incubated for 1 minutes and vacuum is applied for 30 seconds. In order to maximize the recovery of total RNA the elution step is repeated with additional 30 μl/well RNase-free water.
Quantitation of survivin and GAPDH mRNA levels is determined by real-time quantitative RT-PCR using the ABI PRISM® 7900 Sequence Detection System (Applied Biosystems). RT-PCR reactions are carried out by adding 15 ul of TaqMan One Step PCR Master Mix (Applied Biosystems, #4309169) reagents (containing 100 nM each of forward primer and reverse primer, and 200 nM probe) to 96-well plates with 10 μl total RNA. For human survivin, the forward PCR primer is: 5′[…]3′ (SEQ ID NO: 186), and the reverse primer is: 5′[…]3′ (SEQ ID NO: 187). The survivin TaqMan® probe used is 5′(FAM)[…]3′ (SEQ ID NO: 188) (Biosearch Technologies, Inc.). This primer-probe set, designed to SEQ ID No 14 was used for all experiments in Examples 15 to the end. For human GAPDH, TaqMan GAPDH Control Reagent Kit is used (Applied Biosystems, #402869). The percentage inhibition for each samples are calculated by comparing the survivin/GAPDH mRNA ratio for the sample to survivin/GAPDH mRNA ratio for the untreated control. The IC50 is derived from the non-linear regression analysis of the percentage inhibition data using GraphPad Prism software (GraphPad Software).
The constructs tested comprise the antisense strand in the 5′-3′ orientation, and the sense strand in the 5′ to 3′ orientation, In Table 15, “D” is dose response (mRNA levels) and “W” is Western blot. […]

[1] = Stability of siRNA constructs in mouse plasma, capillary gel electrophoresis; format: in vitro ADME; settings: for Stability (t ½ in hours): Table 17, 25% mouse plasma, 37° C., pseudo first-order half-life of intact siRNA duplex
Method: Intact duplex RNA was analyzed from diluted mouse-plasma using an extraction and capillary electrophoresis method similar to those previously described (Leeds, J. M., et al., 1996, Anal. Biochem., 235, 36-43; Geary, R. S., et al., 1999, Anal. Biochem., 274, 241-248. Heparin-treated mouse plasma, from 3-6 month old female Balb/c mice (Charles River Labs) was thawed from −80° C. and diluted to 25% (v/v) with phosphate buffered saline (140 mM NaCl, 3 mM KCl, 2 mM potassium phosphate, 10 mM sodium phosphate). Approximately 10 nmol of pre-annealed siRNA, at a concentration of 100 μM, was added to the 25% plasma and incubated at 37° C. for 0, 15, 30, 45, 60, 120, 180, 240, 360, and 420 minutes. Aliquots were removed at the indicated time, treated with EDTA to a final concentration of 2 mM, and placed on ice at 0° C. until analyzed by capillary gel electrophoresis (Beckman P/ACE MDQ-UV with eCap DNA Capillary tube). The area of the siRNA duplex peak was measured and used to calculate the percent of intact siRNA remaining. Adenosine triphosphate (ATP) was added at a concentration of 2.5 mM to each injection as an internal calibration standard. A zero time point was taken by diluting siRNA in phosphate buffered saline followed by capillary electrophoresis. Percent intact siRNA was plotted against time, allowing the calculation of a pseudo first-order half-life.

[2] = Table 16, cell line not given, read-out: IC50 (nM) mRNA, dsRNA to human survivin

## 339044_339074 (antisense AGGGCUGCCAGGCAGGGGGC; sense GCCCCUGCCUGGCAGCCCU; siRNA; listed as RNA, chemistry not fully specified)
Survivin protein
  IC50: 5.3 nM

## 339046_339076 (antisense AACCCUGGAAGUGGUGCAGC; sense GCUGCACCACUUCCAGGGUU; siRNA; unmodified RNA)
Survivin protein
  IC50: 3.5 nM

## 339049_339079 (antisense AGCACAGUUGAAACAUCUAA; sense UUAGAUGUUUCAACUGUGCU; siRNA; unmodified RNA)
Survivin protein
  IC50: 6.12 nM

## 339050_339080 (antisense AGAAGCACCUCUGGUGCCAC; sense GUGGCACCAGAGGUGCUUCU; siRNA; unmodified RNA)
Survivin protein
  IC50: ≥ 100 nM

## 339051_339081 (antisense UCCCUCACUUCUCACCUGGU; sense ACCAGGUGAGAAGUGAGGGA; siRNA; unmodified RNA)
Survivin protein
  IC50: ≥ 100 nM

## 339054_339084 (antisense CAACAUGAGGUCCAGACACA; sense UGUGUCUGGACCUCAUGUUG; siRNA; unmodified RNA)
Survivin protein
  IC50: ≥ 100 nM

## 339055_339085 (antisense AGUCCACACUCAGGACUGUG; sense CACAGUCCUGAGUGUGGACU; siRNA; unmodified RNA)
Survivin protein
  IC50: ≥ 100 nM

## 339057_339087 (antisense CAGGGACUCUGUCUCCAUUC; sense GAAUGGAGACAGAGUCCCUG; siRNA; unmodified RNA)
Survivin protein
  IC50: ≥ 100 nM

## 339059_339089 (antisense GCUAUUCUGUGAAUUAACAA; sense UUGUUAAUUCACAGAAUAGC; siRNA; unmodified RNA)
Survivin protein
  IC50: 6.41 nM

## 339062_339092 (antisense UCCACCUGAAGUUCACCCCG; sense CGGGGUGAACUUCAGGUGGA; siRNA; unmodified RNA)
Survivin protein
  IC50: 65.2 nM
Human survivin mRNA; D (dose response, mRNA levels), HeLa cells, read-out: IC50
  IC50: 1.8 nM

## 339063_339093 (antisense AAGGAGUAUCUGCCAGACGC; sense GCGUCUGGCAGAUACUCCUU; siRNA; unmodified RNA)
Survivin protein
  IC50: 6.2 nM

## 339064_339094 (antisense UAAUCACACAGCAGUGGCAA; sense UUGCCACUGCUGUGUGAUUA; siRNA; unmodified RNA)
Survivin protein
  IC50: 5.45 nM

## 339066_339096 (antisense AAAGGAUUUAGGCCACUGCC; sense GGCAGUGGCCUAAAUCCUUU; siRNA; unmodified RNA)
Survivin protein
  IC50: 1.72 nM

## Compound U17: canonical siRNA targeted to human survivin, two deoxythymidines at 3' end of each strand (Table 14) (antisense GGAGAUCAACAUUUUCAAA; sense UUUGAAAAUGUUGAUCUCC; RNA, 3' dTdT, backbone not given here)
Survivin protein; in words
  activity in Western blot analysis: potent activity
Human survivin mRNA; in words
  activity in quantitative RT-PCR analysis: potent activity

## ISIS 353537_343868: dsRNA duplex: antisense 353537 (4'-thio), sense 343868 (unmodified) (antisense UUUGAAAAUGUUGAUCUCC; sense GGAGAUCAACAUUUUCAAA; 4'-thio antisense, chemistry not fully specified)
[1]
  Stability (t ½ in hours): 3 h
Human survivin mRNA; [2]
  IC50: 0.18 nM

## ISIS 355713_355714: blunt-ended siRNA duplex, alternating 2'-O-methyl/2'-fluoro in opposing register: antisense 355713, sense 355714 (antisense UUUGAAAAUGUUGAUCUCC; sense GGAGAUCAACAUUUUCAAA; chemistry not fully specified)
[1]
  Stability (t ½ in hours): >4 h
[1]; in words
  stability of construct in serum (mouse plasma): remains relatively unchanged and is stable in serum
Human survivin mRNA; [2]
  IC50: 0.06 nM
